{"source": "paper PMC12096079", "about": "“m^6A modification is incorporated into bacterial mRNA without specific functional benefit” (Nucleic Acids Research, 2025)", "target": "YafS (Escherichia coli, UniProt P75672)", "sequence (P75672 whole entry)": "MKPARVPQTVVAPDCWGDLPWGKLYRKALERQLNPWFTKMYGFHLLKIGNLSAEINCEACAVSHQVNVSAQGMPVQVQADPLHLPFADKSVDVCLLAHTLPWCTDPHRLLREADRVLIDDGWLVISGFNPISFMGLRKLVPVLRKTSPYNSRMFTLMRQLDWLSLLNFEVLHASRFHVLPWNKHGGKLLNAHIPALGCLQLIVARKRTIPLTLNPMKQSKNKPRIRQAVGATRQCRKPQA", "assay": "intrinsic tryptophan fluorescence quenching titration (ex […] nm, em […] nm)", "type": "binding", "data": [{"compound": "C[S+](CC[C@H](N)C(=O)O)C[C@H]1O[C@@H](n2cnc3c(N)ncnc32)[C@H](O)[C@@H]1O", "note": "(stereo partly shown) [SAM]", "values": [{"measurement": "Kd", "value": "680 ± 100", "unit": "nM"}]}]}
